Data on seven compounds can be found in US20230173014A1, “WINE LEES, DERIVATIVES THEREOF AND THEIR USES” (GRANDES VINOS Y VIÑEDOS SA, priority 2021, published 2023).

For experiment [1], the system named is spontaneously hypertensive rats (SHR). In words: Antihypertensive activity after acute intragastric administration in hypertensive rats (tail-cuff). It counts as in vivo, rat. The note with it: for maximum values of SBP reduction: printed as at 4 h post-administration; for ΔSBP (mmHg) 2 h: mean ± ESM n=6; for ΔSBP (mmHg) 4 h / ΔSBP (mmHg) 6 h / ΔSBP (mmHg) 8 h / ΔSBP (mmHg) 24 h / ΔSBP (mmHg) 48 h: same doses. Here is the method:
For the study, male SHR rats 17-20 weeks old and weighing between 310 and 360 g, from Charles River Laboratories España S.A. were used. The rats remained at a stable ambient temperature of 23° C., and with light-dark cycles of 12 hours, eating food and water ad-libitum.
The BP measurement in these animals was carried out with a modification of the tail-cuff technique, following the methodology and equipment described by Mas-Capdevila et al. 2018. The measurement of the SBP was performed prior to the administration of the treatments and after their administration at 2, 4, 6, 8, 24 and 48 h. The treatments consisted of the acute administration of a dose of 5 mL/kg bw of the different wine lees (supernatant collected after centrifugation at 2,950×g, 15 min, 4° C.). The effect of water administration (1.5 mL, negative control) was also evaluated in order to know the circadian variation of SBP in rats and of captopril (50 mg/kg bw dissolved in 1.5 mL of water), antihypertensive drug used as a positive control. The administration of all the treatments was carried out by means of an intragastric tube at between 9 and 10 a.m.
The SBP and DBP results are represented as a decrease in SBP or DBP at different times with respect to the SBP or DBP observed at 0 h (without treatment) for each animal (FIG. 1). Each data represents the mean±the ESM (n=6). Furthermore, the data of the different groups were compared in a 2-way analysis of variance (ANOVA) using the Tukey test at each post-administration time with the SPSS statistical program (IBM SPSS Statistics software version 20.0) and the difference was considered significant for p values <0.05.
In the present example, the effect of dry UVC wine lees, without alcohol, on its antihypertensive activity is described by means of its acute administration to SHR rats. The study was carried out following the method and conditions described in Example 3. The treatments that were evaluated consisted of the acute administration of water (1.5 mL), captopril (50 mg/kg bw), UVC wine lees (5 mL/kg bw), or the same lyophilized lees (125 mg/kg bw). The tested dose of lyophilized lees (125 mg/kg bw) corresponded to the same amount of dry product that is in 5 mL/kg bw of the wine lees. Solid state treatments were diluted in water for administration to animals. […] In fact, it increased its effectiveness from the two hours after its administration, producing a drop in systolic blood pressure of −33 mmHg compared to −12 mmHg, a drop produced by those without drying. Furthermore, its effect was more prolonged in time. Specifically, lyophilized UVC wine lees produced a drop in SBP of −41 mmHg at 24 h post-administration.
The antihypertensive effect of the “hydrolysate 3” was studied for 72 h (0, 2, 4, 6, 8, 24, 48, and 72 h), after its administration by intragastric tube. As in Example 3, negative and positive BP controls were performed, obtained after administration of water and captopril (50 mg/kg bw) respectively, in a volume of 1.5 mL per animal. The antihypertensive activity of the wine lees used to prepare “hydrolysate 3” and “hydrolysate 3” was evaluated, both at a dose of 5 mL/kg bw. The lees used in these tests were from a different batch than the one used in Example 3.
For the evaluation of the possible acute antihypertensive effect of the peptides, a study in SHR rats was carried out, provided by Charles River Laboratories Espana S.A. The rats' age, stalling conditions and BP measurement technique were the same as those described in Example 3. The initial SBP of the animals was 204±2 mmHg. A negative control (water) and a positive control (captopril) were also included during the study. The peptides were administered intragastrically at a single dose of 10 mg/kg bw and captopril at 50 mg/kg bw, diluted in water. BP measurements were pooled and the mean±ESM was obtained (n=6 per group). The same analysis of variance was used as in Example 3.

Experiment [2] has as its target Angiotensin Converting Enzyme (ACE) (Homo sapiens, UniProt P12821). Nature of the experiment: ACEI activity measurement (in vitro ACE inhibition). The note with it: synthetic peptides at 0.83 mg/mL. It counts as biochemical. Here is the method:
Once the wine lees were collected, they were centrifuged at 2,950×g, 15 min, 4° C. and the supernatant was collected. The ACEI activity of the supernatants was determined as described in Example 2.
The ACEI activity measurement of the wine lees and their hydrolysates was performed according to the method described by Mas-Capdevila et al. 2018 (“Dose-related antihypertensive properties and the corresponding mechanisms of a chicken foot hydrolysate in hypertensive rats”. Nutrients. 2018, 10 (9), 1295), after centrifugation at 2,950×g, 15 min, 4° C. and a dilution of 1/256.
The percentage of inhibition (% Inhibition) was calculated applying the following formula: […]
The IC50 was calculated by determining the ACEI percentage of different concentrations of the sample. […] Subsequently, the necessary amount of the sample was calculated to inhibit 50% of the enzyme by extrapolating in the previously obtained straight line. […]

Setting [3] is: Example 10, peptides 10 mg/kg bw, captopril 50 mg/kg bw, intragastric.

Sequence of Angiotensin Converting Enzyme (ACE) (P12821 30-1306, species assumed): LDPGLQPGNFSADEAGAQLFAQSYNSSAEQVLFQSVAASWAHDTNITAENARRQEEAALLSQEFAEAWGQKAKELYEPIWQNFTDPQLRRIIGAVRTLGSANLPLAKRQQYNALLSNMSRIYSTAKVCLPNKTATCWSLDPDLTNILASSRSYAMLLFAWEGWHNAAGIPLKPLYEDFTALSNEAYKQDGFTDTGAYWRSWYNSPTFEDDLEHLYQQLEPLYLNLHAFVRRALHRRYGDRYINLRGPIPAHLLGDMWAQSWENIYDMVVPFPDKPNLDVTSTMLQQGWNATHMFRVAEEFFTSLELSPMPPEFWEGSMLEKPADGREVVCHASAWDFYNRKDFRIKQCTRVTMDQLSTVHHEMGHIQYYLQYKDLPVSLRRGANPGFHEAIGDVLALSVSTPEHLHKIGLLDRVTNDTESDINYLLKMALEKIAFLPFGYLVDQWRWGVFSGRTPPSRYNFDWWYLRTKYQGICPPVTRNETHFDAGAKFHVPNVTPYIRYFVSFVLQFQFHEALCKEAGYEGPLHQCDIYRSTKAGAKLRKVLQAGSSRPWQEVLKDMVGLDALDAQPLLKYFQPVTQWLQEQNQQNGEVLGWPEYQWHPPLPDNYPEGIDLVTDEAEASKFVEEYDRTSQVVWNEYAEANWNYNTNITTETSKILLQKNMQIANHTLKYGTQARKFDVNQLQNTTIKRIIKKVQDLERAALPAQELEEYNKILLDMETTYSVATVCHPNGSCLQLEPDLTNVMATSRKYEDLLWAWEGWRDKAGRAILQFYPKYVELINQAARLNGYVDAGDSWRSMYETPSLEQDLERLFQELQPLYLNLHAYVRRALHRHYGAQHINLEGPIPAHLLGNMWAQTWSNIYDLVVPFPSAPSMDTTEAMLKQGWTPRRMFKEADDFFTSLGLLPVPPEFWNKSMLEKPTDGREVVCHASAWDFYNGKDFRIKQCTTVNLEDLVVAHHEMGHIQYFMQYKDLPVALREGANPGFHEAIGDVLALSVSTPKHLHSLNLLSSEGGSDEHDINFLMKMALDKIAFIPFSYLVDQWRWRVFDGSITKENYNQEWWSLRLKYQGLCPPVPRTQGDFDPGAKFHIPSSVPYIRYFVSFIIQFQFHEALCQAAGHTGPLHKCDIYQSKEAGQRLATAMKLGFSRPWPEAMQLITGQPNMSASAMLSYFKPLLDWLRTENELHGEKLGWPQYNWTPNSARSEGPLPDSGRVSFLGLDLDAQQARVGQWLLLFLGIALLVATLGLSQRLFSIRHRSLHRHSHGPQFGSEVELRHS

In the case of “FKTTDQQTRTTVA (Synthesized peptide P1) [peptide identified in hydrolysate 3, chemically synthesized]”, the “maximum values of SBP reduction” value in experiment [1] (Example 10, 10 mg/kg bw) is −23 mmHg. In addition, the “ΔSBP (mmHg) 2 h” value in experiment [1] (setting [3]) is reported as −12 ± 2 mmHg. Also, in experiment [1] (Example 10), the “ΔSBP (mmHg) 4 h” value is recorded as −15 ± 4 mmHg, the “ΔSBP (mmHg) 6 h” value is recorded as −23 ± 5 mmHg, the “ΔSBP (mmHg) 8 h” value is −24 ± 3 mmHg and the “ΔSBP (mmHg) 24 h” value was −13 ± 3 mmHg. The “ΔSBP (mmHg) 48 h” value in experiment [1] (Example 10) is −1 ± 3 mmHg. Besides, the “ACEI activity (%)” value in experiment [2] is 27.0 ± 5.6%.

For the compound `C[C@H](CS)C(=O)N1CCC[C@H]1C(=O)O` [Captopril, captopril, reference compound], the “maximum decrease in SBP” value in experiment [1] (Example 3, FIG. 1A, at 6 h post-administration, wine lees 5 mL/kg bw, captopril 50 mg/kg bw) is −43.2±3.9 mmHg. The “maximum decrease in DBP” value in experiment [1] (Example 3, FIG. 1B, at 6 h post-administration, wine lees 5 mL/kg bw, captopril 50 mg/kg bw) was −47.2±1.5 mmHg. In addition, the “ΔSBP (mmHg) 2 h” value in experiment [1] (Example 4, captopril 50 mg/kg bw, UVC wine lees 5 mL/kg bw, lyophilized lees 125 mg/kg bw) is −24 ± 3 mmHg. For the same compound, in experiment [1] (Example 4), the “ΔSBP (mmHg) 4 h” value is reported as −26 ± 2 mmHg, the “ΔSBP (mmHg) 6 h” value is listed as −43 ± 4 mmHg, the “ΔSBP (mmHg) 8 h” value was −16 ± 3 mmHg and the “ΔSBP (mmHg) 24 h” value is given as −1 ± 2 mmHg. Besides, in experiment [1] (Example 4), the “ΔSBP (mmHg) 48 h” value is on record as −2 ± 3 mmHg. Also, the “maximum decrease in SBP at 6 h” value in experiment [1] (Example 8, FIG. 4, captopril 50 mg/kg bw) is listed as −43 mm Hg. Further, in experiment [1] (Example 8, hydrolysate 5 mL/kg bw, captopril 50 mg/kg bw), the “decrease in SBP at 48 h after administration” value is on record as “no longer exerted any significant effect”. In experiment [1] (setting [3]), the “ΔSBP (mmHg) 2 h” value is listed as −19 ± 6 mmHg. The “ΔSBP (mmHg) 2 h” value in experiment [1] (Example 10, peptides 10 mg/kg bw, captopril 50 mg/kg bw, intragastric, listed as captopril) is reported as −19 mmHg. Also, in experiment [1] (Example 10), the “ΔSBP (mmHg) 4 h” value is −34 ± 4 mmHg, the “ΔSBP (mmHg) 6 h” value is −44 ± 4 mmHg, the “ΔSBP (mmHg) 8 h” value is given as −45 ± 3 mmHg and the “ΔSBP (mmHg) 24 h” value was −22 ± 6 mmHg. The “ΔSBP (mmHg) 48 h” value in experiment [1] (Example 10) is given as −7 ± 4 mmHg. Besides, in experiment [1] (Example 10, listed as captopril), the “ΔSBP (mmHg) 24 h” value is on record as −22 mmHg. For the same compound, in experiment [1] (FIG. 2A, 6 h after administration, captopril 50 mg/kg bw), the “decrease in SBP” value was −43 mmHg.

As to “NPKLVTIV (Synthesized peptide P2) [peptide identified in hydrolysate 3, chemically synthesized]”, the “ΔSBP (mmHg) 2 h” value in experiment [1] (setting [3]) is reported as −9 ± 6 mmHg. For the same compound, in experiment [1] (Example 10), the “ΔSBP (mmHg) 4 h” value is −13 ± 4 mmHg, the “ΔSBP (mmHg) 6 h” value is given as −19 ± 5 mmHg, the “ΔSBP (mmHg) 8 h” value was −14 ± 3 mmHg and the “ΔSBP (mmHg) 24 h” value is recorded as −5 ± 4 mmHg. The “ΔSBP (mmHg) 48 h” value in experiment [1] (Example 10) was −5 ± 3 mmHg. Besides, the “ACEI activity (%)” value in experiment [2] is recorded as 48.5 ± 9.1%.

For the compound “LDSPSEGRAPGAD (Synthesized peptide P6) [peptide identified in hydrolysate 3, chemically synthesized]”, the “maximum values of SBP reduction” value in experiment [1] (Example 10, 10 mg/kg bw) is −24 mmHg. In addition, in experiment [1] (setting [3]), the “ΔSBP (mmHg) 2 h” value is on record as −11 ± 2 mmHg. In addition, in experiment [1] (Example 10), the “ΔSBP (mmHg) 4 h” value is reported as −16 ± 4 mmHg, the “ΔSBP (mmHg) 6 h” value is recorded as −24 ± 3 mmHg, the “ΔSBP (mmHg) 8 h” value is recorded as −22 ± 4 mmHg and the “ΔSBP (mmHg) 24 h” value is −2 ± 4 mmHg. Also, the “ΔSBP (mmHg) 48 h” value in experiment [1] (Example 10) is given as −5 ± 4 mmHg. In experiment [2], the “ACEI activity (%)” value was 2.4 ± 0.9%.

For the compound “TVTNPARIA (Synthesized peptide P3) [peptide identified in hydrolysate 3, chemically synthesized]”, in experiment [1] (setting [3]), the “ΔSBP (mmHg) 2 h” value is listed as −2 ± 4 mmHg. Further, in experiment [1] (Example 10), the “ΔSBP (mmHg) 4 h” value was −14 ± 4 mmHg, the “ΔSBP (mmHg) 6 h” value is listed as −16 ± 2 mmHg, the “ΔSBP (mmHg) 8 h” value is −14 ± 4 mmHg and the “ΔSBP (mmHg) 24 h” value is −5 ± 3 mmHg. The “ΔSBP (mmHg) 48 h” value in experiment [1] (Example 10) was −2 ± 3 mmHg.

Turning to “PAGELHP (Synthesized peptide P4) [peptide identified in hydrolysate 3, chemically synthesized]”, the “antihypertensive effect in SHR” value in experiment [1] (Example 10, 10 mg/kg bw) is given as “did not show an antihypertensive effect”. The “ΔSBP (mmHg) 2 h” value in experiment [1] (setting [3]) is given as −7 ± 3 mmHg. In addition, in experiment [1] (Example 10), the “ΔSBP (mmHg) 4 h” value is on record as −5 ± 4 mmHg, the “ΔSBP (mmHg) 6 h” value is listed as −6 ± 5 mmHg, the “ΔSBP (mmHg) 8 h” value is −5 ± 4 mmHg and the “ΔSBP (mmHg) 24 h” value is −3 ± 7 mmHg. Moreover, the “ΔSBP (mmHg) 48 h” value in experiment [1] (Example 10) is given as −2 ± 3 mmHg.

With “LDSPSEGRAPG (Synthesized peptide P5) [peptide identified in hydrolysate 3, chemically synthesized]”, the “ΔSBP (mmHg) 2 h” value in experiment [1] (setting [3]) is −10 ± 4 mmHg. In experiment [1] (Example 10), the “ΔSBP (mmHg) 4 h” value was −12 ± 5 mmHg, the “ΔSBP (mmHg) 6 h” value is listed as −18 ± 3 mmHg, the “ΔSBP (mmHg) 8 h” value is listed as −18 ± 3 mmHg and the “ΔSBP (mmHg) 24 h” value is listed as −3 ± 4 mmHg. The “ΔSBP (mmHg) 48 h” value in experiment [1] (Example 10) is −1 ± 4 mmHg.
